Results published in patent publication US20100152213A1, “COMPOUND THAT IS A DUAL INHIBITOR OF ENZYMES PDE7 AND/OR PDE4, PHARMACEUTICAL COMPOSITIONS AND USES THEREOF” (priority 2007, published 2010).
Read-outs that look alike come from different tables or passages of the source.

What was measured:
[1] = test system: clone of Th2 lymphocytes (D10.G4.1)
Procedure: Cell toxicity tests were carried out on a clone of Th2 lymphocytes (D10.G4.1) through flow cytometry using Propidium Iodide in order to determine cell death.
After this time, the cells were washed and incubated with 5 μg/ml of Propidium Iodide during 1 min. The samples treated in this way were analysed by cytometry using BD FACSCanto™ equipment.

[2] = biological target: T1, catalytic domain of PDE7A1 (aa. 130-482) (Homo sapiens, UniProt Q13946); assay: PDE inhibitor test, PDE7A1 (3H-cAMP hydrolysis); format: biochemical; conditions: substrate at 1/10 of KM; six inhibitor concentrations; duplicate; read-out: Inhibitor data of PDE7A1 (CI50)
T1 construct: The catalytic domain of PDE7A1 (aá. 130-482); made in house; host or cells: E. coli BL21
T1 sequence (Q13946 130-482): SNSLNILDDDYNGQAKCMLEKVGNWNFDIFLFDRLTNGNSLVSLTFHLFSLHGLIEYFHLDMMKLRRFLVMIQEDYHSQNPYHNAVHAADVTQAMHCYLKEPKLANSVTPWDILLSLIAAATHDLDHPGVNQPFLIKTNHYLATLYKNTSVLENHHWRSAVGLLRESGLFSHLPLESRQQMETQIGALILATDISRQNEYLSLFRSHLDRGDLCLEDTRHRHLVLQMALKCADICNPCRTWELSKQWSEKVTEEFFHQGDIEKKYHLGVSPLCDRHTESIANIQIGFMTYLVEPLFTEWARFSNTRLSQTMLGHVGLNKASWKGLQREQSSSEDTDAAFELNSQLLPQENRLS

[3] = biological target: T2, complete enzyme of PDE4D2 (aa. 1-507) (Homo sapiens, UniProt Q08499); assay: PDE inhibitor test, PDE4D2 (3H-cAMP hydrolysis); format: biochemical; conditions: substrate at 1/10 of KM; six inhibitor concentrations; duplicate; read-out: Inhibitor data of PDE4D2 (CI50)
T2 construct: the complete enzyme of PDE4D2 (aa. 1-507); made in house; host or cells: E. coli BL21
T2 sequence (Q08499 303-809): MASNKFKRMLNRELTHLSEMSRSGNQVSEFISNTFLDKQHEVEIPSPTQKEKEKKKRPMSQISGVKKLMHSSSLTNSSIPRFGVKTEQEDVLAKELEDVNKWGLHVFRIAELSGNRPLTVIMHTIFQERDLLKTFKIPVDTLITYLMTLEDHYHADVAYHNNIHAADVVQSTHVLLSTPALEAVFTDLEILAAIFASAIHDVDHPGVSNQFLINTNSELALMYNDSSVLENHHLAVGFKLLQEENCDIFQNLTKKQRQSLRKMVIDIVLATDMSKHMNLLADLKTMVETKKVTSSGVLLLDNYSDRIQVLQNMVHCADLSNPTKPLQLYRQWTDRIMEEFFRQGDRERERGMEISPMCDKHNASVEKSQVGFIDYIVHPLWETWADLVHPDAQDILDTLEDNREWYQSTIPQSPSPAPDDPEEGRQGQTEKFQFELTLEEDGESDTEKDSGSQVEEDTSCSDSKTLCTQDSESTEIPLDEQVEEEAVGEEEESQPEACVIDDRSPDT
Procedure: The catalytic domain of PDE7A1 (aá. 130-482) and the complete enzyme of PDE4D2 (aa. 1-507) were subcloned in pET vectors, overexpressed in E. coli strain BL21, and purified to homogeneity as described in the bibliography (Wang, H., Liu, Y., Chen, Y., Robinson, H., and Ke, H. Multiple elements jointly determine inhibitor selectivity of cyclic nucleotide phosphodiesterases 4 and 7. J. Biol. Chem. 2005, 280, 30949-30955). The enzymatic activities of PDE7A1 and PDE4D2 were tested through incubation of the enzymes with 100 μL of a reaction mixture that contained 50 mM Tris.HCl (pH 8.5), 50 mM MgCl2, 5 mM DTT, and ^3H-cAMP (20000 cpm per test, Sigma-Aldrich) at room temperature during 10 minutes. The reactions were concluded by adding 200 μL 0.2 M ZnSO4 when 20-50% of the cAMP was hydrolysed. The product of the reaction, ^3H-AMP, was precipitated by adding 200 μL 0.25 M Ba(OH)2 (Sigma-Aldrich), while the unreacted ^3H-AMPc remained in the supernatant. Radioactivity of the supernatant was measured with a mixture of scintillation liquid (ScintiSafe PlusTM 50%, Fisher Scientific) using the counter LKB RackBeta 1214.
For inhibitor measurements, six concentrations of inhibitors were used in the presence of a substrate concentration equivalent to 1/10 of the KM and the enzyme concentration that hydrolyses 50% of the substrate. […] All experiments were carried out in duplicate.

[4] = test system: T-lymphocytes; assay: Study of intracellular cAMP levels (cAMP Biotrak Enzymeimmunoassay); format: cell-based; conditions: inhibitor alone (FIG. 5)
Procedure: PDE inhibition has the direct effect of increasing cAMP, since their degradation is prevented. In order to verify this effect on the cell system of T-lymphocytes two compounds of formula (I) of the invention were chosen, specifically: TC 3.6 and TC 3.14 and cAMP concentration was measured using the cAMP Biotrak Enzymeimmunoassay System of Amersham Biosciences kit.

[5] = D10.G4.1 cells, 1×10^6 cells/ml, 48 h

Row | Compound | IC50 [2] [µM] | maximum concentration at which more than 80% cellular viability was maintained in comparison to the control of cells without inhibitor ([1]; mouse, 48 h) [µM] | also measured
1 | 3-(2,6-difluorophenyl)-2-methylthio-4-thioxo-3,4-dihydroquinazoline [TC2.43] |  |  | maximum concentration at which more than 80% cellular viability was maintained in comparison to the control of cells without inhibitor [1, 5]: 5 µM
2 | Cc1ccc([N+](=O)[O-])cc1S(=O)(=O)N(C)C [BRL50481, 3-(N,N-dimethylsulfonamide)-4-methyl-nitrobenzene, reference compound] |  |  | maximum concentration at which more than 80% cellular viability was maintained in comparison to the control of cells without inhibitor [1, 5]: >1000 µM
3 | COc1ccc(C2CNC(=O)C2)cc1OC1CCCC1 (stereo not drawn) [Rolipram, reference compound] |  |  | maximum concentration at which more than 80% cellular viability was maintained in comparison to the control of cells without inhibitor [1, 5]: >1000 µM
4 | O=c1c2cc(Br)ccc2[nH]c(=S)n1-c1ccccc1 [TC2.30A, 6-Bromo-3-phenyl-4-oxo-2-thioxo-1,2,3,4-tetrahydroquinazoline] | > 10 |  | 
5 | Fc1ccc(-n2c(=S)[nH]c3ccccc3c2=S)c(F)c1F [TC2.45, 3-(2,3,4-Trifluorophenyl)-2,4-dithioxo-1,2,3,4-tetrahydroquinazoline] | > 1 |  | 
6 | Fc1cccc(F)c1-n1c(=S)[nH]c2ccccc2c1=S [TC2.49, 3-(2,6-Difluorophenyl)-2,4-dithioxo-1,2,3,4-tetrahydroquinazoline] | ~1 | 50 | 
7 | CSc1nc2ccccc2c(=S)n1-c1ccc(F)c(F)c1F [TC2.51, 3-(2,3,4-trifluorophenyl)-2-methylthio-4-thioxo-3,4-dihydroquinazoline] | > 1 |  | 
8 | CSc1nc2ccccc2c(=S)n1-c1c(F)cccc1F [TC3.1, 3-(2,6-difluorophenyl)-2-methylthio-4-thioxo-3,4-dihydroquinazoline] | 0.1 to 1 | 10 | 
9 | S=c1[nH]c2ccccc2c(=S)n1-c1ccccc1 [TC3.6, 3-Phenyl-2,4-dithioxo-1,2,3,4-tetrahydroquinazoline] | 1.04 ± 0.08 | 1000 | IC50 [3]: 5.7 ± 0.03 µM; cell toxicity (in words) ([1]; D10.G4.1 cells, 48 h, among the compounds of new synthesis): most moderate toxicity; amount of intracellular cAMP in relation to the control [4]: increased in a statistically significant manner
10 | CSc1nc2ccccc2c(=S)n1-c1ccccc1 [TC3.9, 3-Phenyl-2-methylthio-4-thioxo-3,4-dihydroquinazoline] | 0.84 ± 0.01 | 100 | IC50 [3]: 8 ± 1.2 µM
11 | CSc1nc2ccccc2c(=S)n1-c1ccccc1Br [TC3.13, 3-(2-bromophenyl)-2-methylthio-4-thioxo-3,4-dihydroquinazoline] | 0.1 to 1 | 10 | 
12 | Cc1cccc2c(=O)n(-c3ccccc3Br)c(=S)[nH]c12 [TC3.14, 3-(2-Bromophenyl)-8-methyl-4-oxo-2-thioxo-1,2,3,4-tetrahydroquinazoline] | 1.7 ± 0.1 | 600 | IC50 [3]: 34 ± 5 µM; cell toxicity (in words) [1]: most moderate toxicity; amount of intracellular cAMP in relation to the control [4]: increased in a statistically significant manner
13 | CSc1nc2c(C)cccc2c(=O)n1-c1ccccc1 [TC3.15b, 3-Phenyl-8-methyl-2-methylthio-4-oxo-3,4-dihydroquinazoline] | ~1 | 600 | cell toxicity (in words) [1]: most moderate toxicity
14 | Cc1cccc2c(=O)n(-c3c(F)cccc3F)c(=S)[nH]c12 [TC3.16, 3-(2,6-Difluorophenyl)-8-methyl-4-oxo-2-thioxo-1,2,3,4-tetrahydroquinazoline] | > 1 |  | 
15 | Cc1cccc2c(=O)n(-c3ccc(F)c(F)c3F)c(=S)[nH]c12 [TC3.17, 3-(2,3,4-Trifluorophenyl)-8-methyl-4-oxo-2-thioxo-1,2,3,4-tetrahydroquinazoline] | > 10 |  | 
16 | CSc1nc2c(C)cccc2c(=O)n1-c1ccccc1Br [TC3.22, 3-(2-Bromophenyl)-8-methyl-2-methylthio-4-oxo-3,4-dihydroquinazoline] | 0.27 ± 0.02 | 5 | IC50 [3]: 1.1 ± 0.2 µM
17 | CSc1nc2c(C)cccc2c(=O)n1-c1c(F)cccc1F [TC3.23, 3-(2,6-Difluorophenyl)-8-methyl-2-methylthio-4-oxo-3,4-dihydroquinazoline] | 0.13 ± 0.02 | 10 | IC50 [3]: 1.4 ± 0.2 µM
18 | CSc1nc2c(C)cccc2c(=O)n1-c1ccc(F)c(F)c1F [TC3.24, 3-(2,3,4-Trifluorophenyl)-8-methyl-2-methylthio-4-oxo-3,4-dihydroquinazoline] | > 1 |  | 
19 | O=c1c2cc(Br)ccc2[nH]c(=S)n1-c1ccccc1Br [TC3.28, 6-Bromo-3-(2-bromophenyl)-4-oxo-2-thioxo-1,2,3,4-tetrahydroquinazoline] | ~10 |  | 
20 | O=c1c2cc(Br)ccc2[nH]c(=S)n1-c1c(F)cccc1F [TC3.29, 6-Bromo-3-(2,6-difluorophenyl)-4-oxo-2-thioxo-1,2,3,4-tetrahydroquinazoline] | > 10 |  | 
21 | O=c1c2cc(Br)ccc2[nH]c(=S)n1-c1ccc(F)c(F)c1F [TC3.30, 6-Bromo-3-(2,3,4-trifluorophenyl)-4-oxo-2-thioxo-1,2,3,4-tetrahydroquinazoline] | > 10 |  | 
22 | CSc1nc2ccc(Br)cc2c(=O)n1-c1ccc(F)c(F)c1F [TC3.32, 6-Bromo-3-(2,3,4-trifluorophenyl)-2-methylthio-4-oxo-3,4-dihydroquinazoline] | 2.1 ± 0.1 | 100 | 
23 | CSc1nc2ccc(Br)cc2c(=O)n1-c1ccccc1Br [TC3.35, 6-Bromo-3-(2-bromophenyl)-2-methylthio-4-oxo-3,4-dihydroquinazoline] | 1.86 ± 0.18 | 10 | 
24 | CSc1nc2ccc(Br)cc2c(=O)n1-c1c(F)cccc1F [TC3.36, 6-Bromo-3-(2,6-difluorophenyl)-2-methylthio-4-oxo-3,4-dihydroquinazoline] | 0.24 ± 0.03 | 10 | IC50 [3]: 4.5 ± 0.1 µM
25 | CSc1nc2ccc(Br)cc2c(=O)n1-c1ccccc1 [TC3.47A, 6-Bromo-3-phenyl-2-methylthio-4-oxo-3,4-dihydroquinazoline] | > 1 |  | 
